From patent US11427553B2, “Dihydrooxadiazinones” (Bayer Aktiengesellschaft, priority 2017, dated 2022)

Legend:
IGR-1 cells = assay: Assay 1 cell proliferation measurement, IGR-1; type: cell-based; conditions: Homo sapiens, Melanoma, read-out: Anti-proliferation IC50 [nM] IGR-1
human full length PDE3A = human full length PDE3A (Homo sapiens (Human), UniProt Q14432); assay: Assay 4 PDE3A enzyme inhibition (3H-cAMP SPA); type: biochemical; conditions: Sf9 cell extract
Method in brief: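 In this SPA format, the 60-min room-temperature reaction used 0.025 μCi [8-3H]cAMP and diluted full-length PDE3A from Sf9 cells. Percentage activity was plotted against log compound concentration to derive IC50.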

HMCB cells = assay: Assay 1 cell proliferation measurement, HMCB; type: cell-based; conditions: Homo sapiens, Melanoma, read-out: Anti-proliferation IC50 [nM] HMCB
DBTRG-05-MG cells = assay: Assay 1 cell proliferation measurement, DBTRG-05-MG; type: cell-based; conditions: Homo sapiens, Glioblastoma, read-out: Anti-proliferation IC50 [nM] DBTRG-05-MG
[1] = tested on: PA-1 xenograft (Ovarian teratocarcinoma); assay: Assay 3 in vivo xenotransplantation model, PA-1; conditions: PA-1 ovarian teratocarcinoma xenograft, mice
Excerpt: (§1) In Vivo Xenotransplantation Models
(§2) The anti-tumor activities of Compounds of examples 135 and 146 were examined in murine xenotransplantation models of human cancer. For this purpose, mice were implanted subcutaneously with tumor cells. At a mean tumor size of 20-40 mm^2 animals were randomized into treatment and control groups (at least n=10 animals/group) and treatment started with vehicle only or respective Compound (formulation: 90% PEG400/10% Ethanol; application route: per os (“p.o.”), orally). The oral application volume was 10 ml/kg. In the case of twice daily treatments, the time interval between two applications per day was 6-7 h. The tumor size and the body weight were determined at least weekly. The tumor area was detected by means of an electronic caliper [length (mm)×width (mm)]. The experiment was ended when the study reached the pre-determined ethical endpoint based on German and European animal welfare regulations. In vivo anti-tumor efficacy is presented as T/C ratio at study end (Treatment/Control; mean tumor weight of treatment group/mean tumor weight of control group) in Table 8. A compound having a T/C below 0.5 is defined as active (i.e., effective). Statistical analysis was assessed using SigmaStat software. A one-way analysis of variance was performed and differences to the control were compared by a pair-wise comparison procedure (Dunn's method).

TE4 cells = assay: Assay 2 cell proliferation measurement, TE4; type: cell-based; conditions: Homo sapiens, Oesophagus squamous cell carcinoma, read-out: Anti-proliferation IC50 [nM] TE4
Procedure: (§3) Cell Proliferation Measurement
(§4) The antiproliferative activity of the compounds of the general formula (I) was examined in vitro in human cancer cells. For this purpose, 500 cells, including HeLa cells, A2058 cells, DU145 cells, HMCB cells, IGR37 cells, NCIH1734 cells, OSRC2 cells, or 750 cells, including CAL51 cells, COL0741 cells, DBTRG05MG cells, DKMG cells, G292CLONEA141B1 cells, GB1 cells, HEL cells, HEL9217 cells, JHUEM1 cells, L3.3 cells, LI7 cells, TE4 cells, or 1000 cells, including 8505C cells, HUT78 cells, NCIH1563 cells, NCIH2122 cells, NCIH2172 cells, RVH421 cells, SKMEL3 cells, or 1500 cells, including C32 cells, HS578T cells, JHOM1 cells, NCIH196 cells, OVKATE cells, were plated in 384-well plates with appropriate growth medium and incubated at 37° C. overnight. […] After 72 h, the cells were treated with 20 μl/well of 50% CTG solution in PBS (Promega Cell Titer Glo (catalogue #G755B and G756B)) and incubated at room temperature for 10 min, and luminescence was measured by means of a VICTOR V (Perkin Elmer), in order to determine cell viability at the end of treatment. The percentage effect on cell growth and the IC50 derived therefrom were determined for each test substance using the values from untreated wells (=percent viability). The IC50 values were calculated using a 4-parameter fit.

C32 cells = assay: Assay 1 cell proliferation measurement, C32; type: cell-based; conditions: Homo sapiens, Melanoma, read-out: Anti-proliferation IC50 [nM] C32
[2] = tested on: xenograft models of human tumors; assay: Assay 3 in vivo xenotransplantation models of human cancer (overall statement); conditions: monotherapy treatment, p.o., mice
Excerpt: as §1, §2

NCIH1563 cells = assay: Assay 2 cell proliferation measurement, NCIH1563; type: cell-based; conditions: Homo sapiens, NCI-H1563, Lung adenocarcinoma, read-out: Anti-proliferation IC50 [nM] NCIH1563
Procedure: as §3, §4

JHOM1 cells = assay: Assay 2 cell proliferation measurement, JHOM1; type: cell-based; conditions: Homo sapiens, Ovary adenocarcinoma, read-out: Anti-proliferation IC50 [nM] JHOM1
Procedure: as §3, §4

[3] = tested on: A2058 xenograft (Melanoma); assay: Assay 3 in vivo xenotransplantation model, A2058; conditions: mice, 10 mg/kg 2QD p.o., * P < 0.05 vs control
Excerpt: as §1, §2

DU145 cells = assay: Assay 2 cell proliferation measurement, DU145; type: cell-based; conditions: Homo sapiens, DU-145, Prostate NS, read-out: Anti-proliferation IC50 [nM] DU145
Procedure: as §3, §4

NCIH2122 cells = assay: Assay 2 cell proliferation measurement, NCIH2122; type: cell-based; conditions: Homo sapiens, NCI-H2122, Lung adenocarcinoma, read-out: Anti-proliferation IC50 [nM] NCIH2122
Procedure: as §3, §4

Sequence of human full length PDE3A (Q14432 whole entry): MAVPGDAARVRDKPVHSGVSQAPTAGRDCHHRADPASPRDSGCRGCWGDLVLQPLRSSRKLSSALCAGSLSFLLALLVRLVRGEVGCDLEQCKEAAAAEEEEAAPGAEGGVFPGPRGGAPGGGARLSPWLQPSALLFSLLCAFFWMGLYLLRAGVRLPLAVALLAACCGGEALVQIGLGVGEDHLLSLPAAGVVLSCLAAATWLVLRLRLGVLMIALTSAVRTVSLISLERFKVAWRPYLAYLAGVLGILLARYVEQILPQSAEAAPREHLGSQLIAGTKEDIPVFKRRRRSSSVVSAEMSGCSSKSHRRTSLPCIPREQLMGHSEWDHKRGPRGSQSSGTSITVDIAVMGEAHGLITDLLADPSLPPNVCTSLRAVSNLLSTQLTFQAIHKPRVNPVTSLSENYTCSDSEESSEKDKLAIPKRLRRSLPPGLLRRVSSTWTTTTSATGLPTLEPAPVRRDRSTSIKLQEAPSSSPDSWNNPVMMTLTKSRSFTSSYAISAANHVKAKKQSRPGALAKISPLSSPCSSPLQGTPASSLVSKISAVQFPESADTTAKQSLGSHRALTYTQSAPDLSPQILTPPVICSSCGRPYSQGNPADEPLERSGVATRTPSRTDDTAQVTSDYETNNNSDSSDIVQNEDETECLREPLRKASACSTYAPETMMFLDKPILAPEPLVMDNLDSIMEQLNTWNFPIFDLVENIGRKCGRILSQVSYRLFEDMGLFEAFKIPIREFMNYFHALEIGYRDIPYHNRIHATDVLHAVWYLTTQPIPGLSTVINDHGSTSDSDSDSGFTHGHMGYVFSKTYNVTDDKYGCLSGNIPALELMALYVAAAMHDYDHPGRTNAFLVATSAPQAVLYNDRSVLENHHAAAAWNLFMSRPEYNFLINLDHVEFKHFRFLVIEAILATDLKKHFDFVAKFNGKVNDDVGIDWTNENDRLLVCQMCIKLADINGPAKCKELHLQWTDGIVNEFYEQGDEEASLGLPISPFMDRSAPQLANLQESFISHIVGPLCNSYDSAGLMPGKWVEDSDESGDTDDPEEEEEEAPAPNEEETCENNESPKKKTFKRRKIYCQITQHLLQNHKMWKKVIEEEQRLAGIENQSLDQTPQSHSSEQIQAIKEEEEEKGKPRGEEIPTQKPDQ

Structure (SMILES) | IC50 (IGR-1 cells) | IC50 (human full length PDE3A) | IC50 (HMCB cells) | IC50 (DBTRG-05-MG cells) | IC50 (TE4 cells) | anti-tumor efficacy in xenograft models of human tumors [2] | IC50 (NCIH1563 cells) | other results
O=C1NN=C(c2ccc(-c3ccc(F)cc3)c(C(F)(F)F)c2)CO1 [Example 3, 5-[4′-Fluoro-2-(trifluoromethyl)biphenyl-4-yl]-3,6-dihydro-2H-1,3,4-oxadiazin-2-one] | 99 nM | 285 nM | 26 nM | – | – | – | – | –
O=C1NN=C(c2ccc(-c3ccc(Cl)cc3)c(C(F)(F)F)c2)CO1 [Example 31, 5-[4′-Chloro-2-(trifluoromethyl)biphenyl-4-yl]-3,6-dihydro-2H-1,3,4-oxadiazin-2-one] | – | 310 nM | – | 56 nM | – | – | – | –
C[C@@H]1OC(=O)NN=C1c1ccc(-c2ccc(F)cc2)c(C(F)(F)F)c1 [Example 135, (6S)-5-[4′-Fluoro-2-(trifluoromethyl)biphenyl-4-yl]-6-methyl-3,6-dihydro-2H-1,3,4-oxadiazin-2-one] | > 100 nM | 87 nM | 13 nM | – | 15 nM | potent anti-tumor efficacy | 18 nM | T/C (mean final tumor weight treatment / control) ([1]; 5 mg/kg 2QD p.o.): 0.63; IC50 (C32 cells): 15 nM
O=C1NN=C(c2ccc(-c3cnn(C(F)F)c3)c(C(F)(F)F)c2)CO1 [Example 146, 5-{4-[1-(Difluoromethyl)-1H-pyrazol-4-yl]-3-(trifluoromethyl)phenyl}-3,6-dihydro-2H-1,3,4-oxadiazin-2-one] | – | 40 nM | – | 14 nM | – | potent anti-tumor efficacy | – | T/C (mean final tumor weight treatment / control) ([1]; 20 mg/kg 2QD p.o., * P < 0.05 vs control): 0.49*; IC50 (JHOM1 cells): 8 nM; T/C (mean final tumor weight treatment / control) [3]: 0.23*; IC50 (DU145 cells): 14 nM; IC50 (NCIH2122 cells): 3 nM
C[C@@H]1OC(=O)NN=C1c1ccc(-n2ccc(C(F)(F)F)n2)c(C(F)(F)F)c1 [Example 265, (6S)-6-Methyl-5-{3-(trifluoromethyl)-4-[3-(trifluoromethyl)-1H-pyrazol-1-yl]phenyl}-3,6-dihydro-2H-1,3,4-oxadiazin-2-one] | – | – | – | – | 41 nM | – | 46 nM | –
